The values that follow come from patent publication US8350027B2, “Dual-acting pyrazole antihypertensive agents” (Theravance, Inc., priority 2009, dated 2013).

One assay concerns the target T1, human AT1 receptor (Homo sapiens, UniProt P30556).
T1 construct: expressed in transfected cells; host or cells: CHO-K1
T1 sequence (P30556 1-359): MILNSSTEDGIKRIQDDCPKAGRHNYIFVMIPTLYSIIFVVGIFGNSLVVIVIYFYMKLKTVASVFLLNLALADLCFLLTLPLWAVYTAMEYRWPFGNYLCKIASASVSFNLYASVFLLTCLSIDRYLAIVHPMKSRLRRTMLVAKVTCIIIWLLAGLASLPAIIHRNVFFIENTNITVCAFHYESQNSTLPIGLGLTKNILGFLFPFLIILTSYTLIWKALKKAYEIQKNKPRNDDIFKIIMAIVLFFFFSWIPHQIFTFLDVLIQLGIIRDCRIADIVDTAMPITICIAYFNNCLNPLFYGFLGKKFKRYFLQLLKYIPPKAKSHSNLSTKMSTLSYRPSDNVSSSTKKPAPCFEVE
The experiment in a line: AT1 radioligand binding assay (displacement of [Eu]AngII). The settings on record: membranes of CHO-K1 cells expressing cloned human AT1 receptor; values given as lower bounds; read-out: AT1 pKi (converted). The procedure: A. AT1 and AT2 Radioligand Binding Assays
These in vitro assays were used to assess the ability of test compounds to bind to the AT1 and the AT2 receptors.
Membrane Preparation from Cells Expressing Human AT1 or AT2 Receptors
Chinese hamster ovary (CHO-K1) derived cell lines stably expressing the cloned human AT1 or AT2 receptors, respectively, were grown in HAM's-F12 medium supplemented with 10% fetal bovine serum, 10 μg/ml penicillin/streptomycin, and 500 μg/ml geneticin in a 5% CO2 humidified incubator at 37° C. AT2 receptor expressing cells were grown in the additional presence of 100 nM PD123,319 (AT2 antagonist). When cultures reached 80-95% confluence, the cells were washed thoroughly in PBS and lifted with 5 mM EDTA. Cells were pelleted by centrifugation and snap frozen in MeOH-dry ice and stored at −80° C. until further use.
For membrane preparation, cell pellets were resuspended in lysis buffer (25 mM Tris/HCl pH 7.5 at 4° C., 1 mM EDTA, and one tablet of Complete Protease Inhibitor Cocktail Tablets with 2 mM EDTA per 50 mL buffer (Roche cat.#1697498, Roche Molecular Biochemicals, Indianapolis, Ind.)) and homogenized using a tight-fitting Dounce glass homogenizer (10 strokes) on ice. The homogenate was centrifuged at 1000×g, the supernatant was collected and centrifuged at 20,000×g. The final pellet was resuspended in membrane buffer (75 mM Tris/HCl pH 7.5, 12.5 mM MgCl2, 0.3 mM EDTA, 1 mM EGTA, 250 mM sucrose at 4° C.) and homogenized by extrusion through a 20G gauge needle. Protein concentration of the membrane suspension was determined by the method described in Bradford (1976) Anal Biochem. 72:248-54. Membranes were snap frozen in MeOH-dry ice and stored at −80° C. until further use.
Ligand Binding Assay to Determine Compound Affinities for the Human AT1 and AT2 Angiotensin Receptors
Binding assays were performed in 96-well Acrowell filter plates (Pall Inc., cat.#5020) in a total assay volume of 100 μL with 0.2 μg membrane protein for membranes containing the human AT1 receptor, or 2 μg membrane protein for membranes containing the human AT2 receptor in assay buffer (50 mM Tris/HCl pH 7.5 at 20° C., 5 mM MgCl2, 25 μM EDTA, 0.025% BSA). Saturation binding studies for determination of Kd values of the ligand were done using N-terminally Europium-labeled angiotensin-II ([Eu]AngII, H-(Eu-N^1)-Ahx-Asp-Arg-Val-Tyr-Ile-His-Pro-Phe-OH; PerkinElmer, Boston, Mass.) at 8 different concentrations ranging from 0.1 nM to 30 nM. […] Drugs were dissolved to a concentration of 1 mM in DMSO and from there serially diluted into assay buffer. Non-specific binding was determined in the presence of 10 μM unlabeled angiotensin-II. Assays were incubated for 120 minutes in the dark, at room temperature or 37° C., and binding reactions were terminated by rapid filtration through the Acrowell filter plates followed by three washes with 200 μL ice cold wash buffer (50 mM Tris/HCl pH 7.5 at 4° C., 5 mM MgCl2) using a Waters filtration manifold. Plates were tapped dry and incubated with 50 μl DELFIA Enhancement Solution (PerkinElmer cat.#4001-0010) at room temperature for 5 minutes on a shaker. Filter-bound [Eu]AngII was quantitated immediately on a Fusion plate reader (PerkinElmer) using Time Resolved Fluorescence (TRF). Binding data were analyzed by nonlinear regression analysis with the GraphPad Prism Software package (GraphPad Software, Inc., San Diego, Calif.) using the 3-parameter model for one-site competition. The BOTTOM (curve minimum) was fixed to the value for nonspecific binding, as determined in the presence of 10 μM angiotensin II. Ki values for drugs were calculated from observed IC50 values and the Kd value of [Eu]AngII according to the Cheng-Prusoff equation described in Cheng et al. (1973) Biochem Pharmacol. 22 (23):3099-108. Selectivities of test compounds for the AT1 receptor over the AT2 receptor were calculated as the ratio of AT2Ki/AT1Ki. […]

The target of a further assay is T2, NEP enzyme (Homo sapiens, UniProt P08473).
T2 construct: purchased R&D Systems, Minneapolis, Minn; 1182-ZN
T2 sequence (P08473 52-750 limits assumed): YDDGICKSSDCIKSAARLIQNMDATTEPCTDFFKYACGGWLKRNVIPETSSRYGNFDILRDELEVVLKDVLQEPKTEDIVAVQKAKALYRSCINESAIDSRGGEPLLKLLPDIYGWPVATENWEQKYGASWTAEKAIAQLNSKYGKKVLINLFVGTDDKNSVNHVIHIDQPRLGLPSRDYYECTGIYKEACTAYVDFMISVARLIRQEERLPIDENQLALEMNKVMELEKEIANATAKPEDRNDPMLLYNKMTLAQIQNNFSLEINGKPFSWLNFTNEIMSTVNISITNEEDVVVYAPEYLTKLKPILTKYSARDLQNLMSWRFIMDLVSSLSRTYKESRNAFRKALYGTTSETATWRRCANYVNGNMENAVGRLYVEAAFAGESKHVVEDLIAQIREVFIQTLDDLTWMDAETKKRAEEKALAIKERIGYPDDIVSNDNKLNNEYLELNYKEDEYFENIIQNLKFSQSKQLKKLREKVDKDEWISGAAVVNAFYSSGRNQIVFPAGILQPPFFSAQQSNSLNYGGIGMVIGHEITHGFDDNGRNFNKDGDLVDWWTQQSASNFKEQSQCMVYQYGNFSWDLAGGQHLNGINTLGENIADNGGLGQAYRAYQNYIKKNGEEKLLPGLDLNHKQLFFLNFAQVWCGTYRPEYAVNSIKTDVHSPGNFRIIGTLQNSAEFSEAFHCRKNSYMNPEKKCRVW
Description: NEP enzyme inhibition assay (fluorogenic peptide substrate). It counts as biochemical. The settings on record: values given as lower bounds; * = prodrugs, may not exhibit NEP activity in an in vitro assay; read-out: NEP pIC50 (converted). The procedure:
B. In Vitro Assays for the Quantitation of Inhibitor Potencies (IC50) at Human and Rat NEP, and Human ACE
The inhibitory activities of compounds at human and rat NEP and human ACE were determined using in vitro assays as described below.
Recombinant human NEP and recombinant human ACE were obtained commercially (R&D Systems, Minneapolis, Minn., catalog numbers 1182-ZN and 929-ZN, respectively). The fluorogenic peptide substrate Mca-BK2 (Mca-Arg-Pro-Pro-Gly-Phe-Ser-Ala-Phe-Lys(Dnp)-OH; Johnson et al. (2000) Anal. Biochem. 286: 112-118) was used for the human NEP and ACE assays, and Mca-RRL (Mca-DArg-Arg-Leu-(Dnp)-OH; Medeiros et al. (1997) Braz. J. Med. Biol. Res. 30:1157-1162) was used for the rat NEP assay (both from Anaspec, San Jose, Calif.).
The assays were performed in 384-well white opaque plates at room temperature using the respective fluorogenic peptides at a concentration of 10 μM in assay buffer (50 mM Tris/HCl at 25° C., 100 mM NaCl, 0.01% Tween-20, 1 μM Zn, 0.025% BSA). […] The rat NEP enzyme preparation was used at a concentration that yielded quantitative proteolysis of 3 μM of Mca-RRL within 20 minutes at room temperature.
Test compounds were diluted to 12 concentrations from 10 μM to 20 pM in Assay Buffer. Assays were started by adding 25 μL of enzyme to 12.5 μL of test compound at each of the 12 concentrations. Test compounds were allowed to equilibrate with the enzyme for 10 minutes before 12.5 μL of the fluorogenic substrates were added to initiate the reaction. Reactions were terminated by the addition of 10 μL of 3.6% glacial acetic acid after 20 minutes of incubation.
For sulfhydryl-containing test compounds, the test compounds may be diluted in Assay Buffer containing a 400 μM concentration of tris(2-carboxyethyl)phosphine hydrochloride (Thermo Scientific, Rockford, Ill.) (TCEP). The test compounds are then incubated for 40 minutes at room temperature (to allow for dimer cleavage) before adding the enzyme. Test compounds are then allowed to equilibrate with the enzyme for 20 minutes before adding the fluorogenic substrates. Reactions are terminated as above.
Plates were read on a fluorometer with excitation and emission wavelengths set to 320 nm and 405 nm, respectively. Raw data (relative fluorescence units) were normalized to % activity from the average high readings (no inhibition, 100% enzyme activity) and average low readings (full inhibition, highest inhibitor concentration, 0% enzyme activity) using three standard NEP and ACE inhibitors, respectively. Nonlinear regression of the normalized data was performed using a one site competition model (GraphPad Software, Inc., San Diego, Calif.). Data were reported as pIC50 values.

SMILES strings stand for the structures.

For `CCCCc1cc(C(=O)N[C@H](Cc2ccccc2)[C@@H](O)C(=O)O)nn1Cc1ccc(-c2ccccc2S(=O)(=O)NC(C)=O)cc1F` [Example 6-11, (2R,3R)-3-{[1-(2′-Acetylsulfamoyl-3-fluorobiphenyl-4-ylmethyl)-5-butyl-1H-pyrazole-3-carbonyl]amino}-2-hydroxy-4-phenylbutyric acid], on human AT1 receptor, the Ki was at most 10 nM. In addition, on NEP enzyme, the IC50 was at most 1000 nM.

In the case of `CCCc1cc(C(=O)N[C@@H](CC(=O)O)Cc2ccc(F)cc2)nn1Cc1ccc(-c2ccccc2-c2nnn[nH]2)nc1` [Example 14-13, (R)-4-(4-Fluorophenyl)-3-[(5-propyl-1-{6-[2-(1H-tetrazol-5-yl)phenyl]pyridin-3-ylmethyl}-1H-pyrazole-3-carbonyl)amino]butyric acid], the Ki on human AT1 receptor is at most 10 nM. Moreover, the IC50 on NEP enzyme is at most 100 nM.

For the compound `CCCc1cc(C(=O)N[C@H](Cc2ccccc2)[C@@H](O)C(=O)O)nn1Cc1ccc(-c2ccccc2-c2nnn[nH]2)c(F)c1` [Example 3-10, (2R,3R)-3-(1-((2-Fluoro-2′-(1H-tetrazol-5-yl)biphenyl-4-yl)methyl)-5-propyl-1H-pyrazole-3-carboxamido)-2-hydroxy-4-phenylbutanoic acid], at human AT1 receptor, the Ki was at most 10 nM. Moreover, the IC50 at NEP enzyme was at most 1000 nM.

On to `CCCc1cc(C(=O)N[C@@H](CC(=O)OC)Cc2ccccc2)nn1Cc1ccc(-c2ccccc2-c2nnn[nH]2)cc1` [Example 3-27, (R)-4-Phenyl-3-({5-propyl-1-[2′-(1H-tetrazol-5-yl)-biphenyl-4-ylmethyl]-1H-pyrazole-3-carbonyl}amino)butyric acid methyl ester], for which, at human AT1 receptor, the Ki was at most 10 nM. The IC50 on NEP enzyme was at most 10000 nM.

Consider `CCCc1cc(C(=O)N[C@@H](CC(=O)O)Cc2ccccc2Cl)nn1Cc1ccc(-c2ccccc2-c2nnn[nH]2)nc1` [Example 10, (R)-4-(2-Chlorophenyl)-3-[(5-propyl-1-{6-[2-(1H-tetrazol-5-yl)phenyl]pyridin-3-ylmethyl}-1H-pyrazole-3-carbonyl)amino]butyric Acid], for which the Ki at human AT1 receptor was at most 10 nM. Besides, the IC50 on NEP enzyme was at most 100 nM.

As to `CCCc1cc(C(=O)N[C@H](Cc2ccccc2)[C@@H](O)C(=O)O)nn1Cc1ccc(-c2ccccc2S(=O)(=O)NC(=O)CCOC)cc1` [Example 7-17, (2R,3R)-2-Hydroxy-3-({1-[2′-(3-methoxy-propionylsulfamoyl)biphenyl-4-ylmethyl]-5-propyl-1H-pyrazole-3-carbonyl}amino)-4-phenylbutyric acid], the Ki on human AT1 receptor is at most 10 nM. Besides, the IC50 at NEP enzyme is at most 100 nM.

With `CCCc1cc(C(=O)N[C@H](Cc2ccccc2)[C@@H](O)C(=O)NO)nn1Cc1ccc(-c2ccccc2-c2nnn[nH]2)cc1` [Example 3-17, 1-((2′-(1H-tetrazol-5-yl)biphenyl-4-yl)methyl)-N-((2R,3R)-3-hydroxy-4-(hydroxyamino)-4-oxo-1-phenylbutan-2-yl)-5-propyl-1H-pyrazole-3-carboxamide], at human AT1 receptor, the Ki is at most 10 nM. For the same compound, the IC50 at NEP enzyme is at most 100 nM.

Regarding `CCCc1cc(C(=O)N[C@H](Cc2ccccc2)[C@@H](O)C(=O)O)nn1Cc1ccc(-c2ccccc2S(=O)(=O)NC(=O)N(C)C)cc1` [Example 7-20, (2R,3R)-3-(1-((2′-(N-(dimethylcarbamoyl)sulfamoyl)biphenyl-4-yl)methyl)-5-propyl-1H-pyrazole-3-carboxamido)-2-hydroxy-4-phenylbutanoic acid], on human AT1 receptor, the Ki is at most 10 nM. The IC50 on NEP enzyme was at most 100 nM.

Take `CCCc1cc(C(=O)N[C@@H](CS)Cc2ccccc2)nn1Cc1ccc(-c2ccccc2-c2nnn[nH]2)cc1` [Example 3-6, 5-Propyl-1-[2′-(1H-tetrazol-5-yl)biphenyl-4-ylmethyl]-1H-pyrazole-3-carboxylic acid ((R)-1-benzyl-2-mercaptoethyl)amide]: the Ki on human AT1 receptor is at most 10 nM. For the same compound, the IC50 on NEP enzyme was at most 100 nM.

As for `CCCc1cc(C(=O)N[C@H](Cc2ccccc2)[C@@H](O)C(=O)O)nn1Cc1c(F)cc(-c2ccccc2S(=O)(=O)NC(C)=O)cc1F` [Example 6-19, (2R,3R)-3-(1-((2′-(N-acetylsulfamoyl)-3,5-difluorobiphenyl-4-yl)methyl)-5-propyl-1H-pyrazole-3-carboxamido)-2-hydroxy-4-phenylbutanoic acid], the Ki on human AT1 receptor is at most 10 nM. Besides, the IC50 at NEP enzyme is at most 100 nM.

Consider `CCCc1cc(C(=O)N[C@@H](CC(=O)NO)Cc2ccccc2)nn1Cc1c(F)cc(-c2ccccc2S(=O)(=O)NC(C)=O)cc1F` [Example 6-20, 1-(2′-Acetylsulfamoyl-3,5-difluorobiphenyl-4-ylmethyl)-5-propyl-1H-pyrazole-3-carboxylic acid ((R)-1-hydroxycarbamoylmethyl-2-phenylethyl)amide], for which, at human AT1 receptor, the Ki is at most 10 nM. At NEP enzyme, the IC50 was at most 100 nM.
